# Assay results: article PMC5408612, “Biophysical studies of cholesterol effects on chromatin” (Journal of Lipid Research, 2017)
# Biological target: T1, long chromatin fibers (chicken histone octamer on 177 bp x 36 array of 601 DNA) (Gallus gallus, UniProt P02263+P0C1H3+P62801+P84229)
# T1 construct: gene H3-I
# Settings: labelled compound; 0.5 and 1 uM; on ice; with or without 4.5 mM MgCl2; histone-DNA complex, site on histone versus DNA not resolved
smiles,measurement,value
"CC1=CC(C)=[N+]2C1=C(CC[C@@H](C)[C@H]1CC[C@H]3[C@@H]4CC=C5C[C@@H](O)CC[C@]5(C)[C@H]4CC[C@]13C)c1c(C)cc(C)n1[B-]2(F)F [TopFluor cholesterol, 23-(dipyrrometheneborondifluoride)-24-norcholesterol]","fluorescence co-migration in native agarose gel (EMSA), pelleting assay",cholesterol bound avidly to open or compacted chromatin fibers
